Experimental findings from ChEMBL document CHEMBL1201862, “PubChem BioAssay data set” (2004) are described below.

Activity calls are given as the source filed them. Some results are limits rather than exact numbers.

In assay [1] the target is Botulinum neurotoxin type F (Clostridium botulinum, UniProt P30996). The assay can be described thus: High-throughput multiplex microsphere dose response for inhibitors of toxin protease, specifically Botulinum neurotoxin light chain F protease, compounds from Cherry Pick 02. The assay is classed as functional. The settings on record: read-out: EC50_MICROM.
Assay [2] can be described thus: cells. It is filed as functional, cell-based.
In assay [3] the target is T1, Trace amine-associated receptor 1 (Homo sapiens, UniProt Q96RJ0).
T1 sequence (Q96RJ0 whole entry): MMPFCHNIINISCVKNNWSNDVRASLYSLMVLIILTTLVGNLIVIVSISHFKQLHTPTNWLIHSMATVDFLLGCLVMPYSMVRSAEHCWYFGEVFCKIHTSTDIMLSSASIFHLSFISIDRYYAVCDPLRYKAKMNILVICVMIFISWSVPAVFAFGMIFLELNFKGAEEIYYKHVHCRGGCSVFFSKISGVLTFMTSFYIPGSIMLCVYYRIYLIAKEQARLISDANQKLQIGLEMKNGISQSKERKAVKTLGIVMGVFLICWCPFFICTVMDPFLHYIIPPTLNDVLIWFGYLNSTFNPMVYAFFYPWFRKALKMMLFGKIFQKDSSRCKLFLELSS
The assay can be described thus: Fluorescence-based cell-based high throughput dose response assay to identify agonists of the human trace amine associated receptor 1 (TAAR1). It is filed as functional.

Assay [4] can be described thus: cells. It is filed as functional, cell-based. The source holds these as a separate data set.
Assay [5] deals with T1, Trace amine-associated receptor 1. The assay can be described thus: Counterscreen for agonists of the human trace amine associated receptor 1 (hTAAR1): Fluorescence-based cell-based high throughput dose response assay to identify hTAAR1 agonist that also desensitize TAAR1 receptor response. The assay is classed as functional.
Assay [6] addresses T2, Beta-2 adrenergic receptor (Homo sapiens, UniProt P07550). The assay can be described thus: beta2AR agonists driving receptor internalization, dose response, cell-based, FAP fluorogen, flow cytometry, cherry pick 1 (AID 588763). The assay is classed as functional.
Assay [7] concerns the target T2, Beta-2 adrenergic receptor. The assay can be described thus: Dose response for HTS for Beta-2AR agonists via FAP method from Powderset3. The assay is classed as functional.
Assay [8] can be described thus: NIH/3T3 fibroblast cytotoxicity, dose response, cytotoxicity control for T. cruzi growth inhibitor project, cell-based, cherry-pick samples, set 2 (AID 651817). It is filed as functional. The settings on record: NIH3T3.
Assay [9] can be described thus: intracellular Trypanosoma cruzi inhibitors in host cells – cell-based, plate reader, cherry-pick samples, set 3, dose response (AID 651818).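 Also: compounds incubated with infected cells for about four days.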 The assay is classed as functional.
The nature of assay [10]: HEK293 cell viability, dose response, counter-screen for EBV LMP1 inhibitor project, dry powder, set 2 (AID 624374). It is filed as functional.
For assay [11], the target named is T3, Tyrosine-protein phosphatase non-receptor type 22 (Homo sapiens, UniProt Q9Y2R2).
T3 sequence (Q9Y2R2 whole entry): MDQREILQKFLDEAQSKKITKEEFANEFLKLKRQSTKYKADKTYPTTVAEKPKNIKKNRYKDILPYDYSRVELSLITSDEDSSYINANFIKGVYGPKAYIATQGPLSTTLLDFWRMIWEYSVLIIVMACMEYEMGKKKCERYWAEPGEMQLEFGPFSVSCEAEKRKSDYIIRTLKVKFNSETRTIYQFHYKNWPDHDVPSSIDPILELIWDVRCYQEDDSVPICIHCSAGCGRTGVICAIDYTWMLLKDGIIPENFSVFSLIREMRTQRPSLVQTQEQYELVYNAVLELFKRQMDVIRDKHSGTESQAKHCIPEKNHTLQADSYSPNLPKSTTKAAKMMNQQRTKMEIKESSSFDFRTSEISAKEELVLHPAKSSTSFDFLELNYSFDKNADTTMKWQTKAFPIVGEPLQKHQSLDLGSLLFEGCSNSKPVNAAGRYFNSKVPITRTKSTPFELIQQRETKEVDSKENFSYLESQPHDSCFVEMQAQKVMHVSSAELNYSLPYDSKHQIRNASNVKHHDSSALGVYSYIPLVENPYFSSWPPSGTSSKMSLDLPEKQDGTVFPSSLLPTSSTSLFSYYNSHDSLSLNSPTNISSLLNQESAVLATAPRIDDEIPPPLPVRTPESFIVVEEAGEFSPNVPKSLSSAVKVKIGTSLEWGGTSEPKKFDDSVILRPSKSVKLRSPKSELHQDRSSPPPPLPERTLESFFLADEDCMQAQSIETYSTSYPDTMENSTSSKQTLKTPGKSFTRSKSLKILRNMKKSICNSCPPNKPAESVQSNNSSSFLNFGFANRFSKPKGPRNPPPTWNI
The assay can be described thus: LYP phosphatase inhibition for selectivity, dose response, selectivity assay for LMPTP inhibitor project, biochemical, fluorescence, LYP catalytic domain (AID 652006). It is filed as functional. Particulars: read-out: IC50_Mean.

Assay [12] has as its target T4, Low molecular weight phosphotyrosine protein phosphatase (Homo sapiens, UniProt P24666).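 Also: Dose-response confirmation assay measuring inhibition of LMPTP enzyme activity by fluorescence intensity read-out.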
T4 sequence (P24666 whole entry): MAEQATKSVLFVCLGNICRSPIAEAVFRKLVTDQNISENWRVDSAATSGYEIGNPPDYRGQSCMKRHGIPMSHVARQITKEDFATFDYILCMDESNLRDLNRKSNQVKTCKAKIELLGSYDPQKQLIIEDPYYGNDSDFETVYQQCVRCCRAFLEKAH
It is filed as functional. The settings on record: read-out: IC50_Mean.

For assay [13], the target named is Matrix metalloproteinase-14 (Homo sapiens, UniProt P50281). The assay can be described thus: Dose Response confirmation of uHTS hits for a small molecule inhibitors of MT1-MMP activation in a fluorescence assay set 2. It is filed as functional.
In assay [14] the target is T5, DNA repair protein RAD52 homolog (Homo sapiens, UniProt P43351).
T5 sequence (P43351 whole entry): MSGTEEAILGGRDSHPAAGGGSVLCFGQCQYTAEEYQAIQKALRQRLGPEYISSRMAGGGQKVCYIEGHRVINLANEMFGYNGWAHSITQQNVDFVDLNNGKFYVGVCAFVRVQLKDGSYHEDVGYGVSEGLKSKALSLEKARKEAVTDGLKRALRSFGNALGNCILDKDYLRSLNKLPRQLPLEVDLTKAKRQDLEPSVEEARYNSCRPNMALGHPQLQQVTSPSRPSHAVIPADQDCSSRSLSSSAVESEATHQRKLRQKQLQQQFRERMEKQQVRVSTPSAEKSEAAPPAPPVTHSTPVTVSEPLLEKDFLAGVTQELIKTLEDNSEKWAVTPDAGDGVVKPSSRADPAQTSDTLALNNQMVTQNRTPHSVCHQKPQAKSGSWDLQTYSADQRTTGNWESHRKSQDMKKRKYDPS
It is filed as functional, biochemical.

For assay [15], the target named is T6, Sentrin-specific protease 8 (Homo sapiens, UniProt Q96LD8).
T6 sequence (Q96LD8 whole entry): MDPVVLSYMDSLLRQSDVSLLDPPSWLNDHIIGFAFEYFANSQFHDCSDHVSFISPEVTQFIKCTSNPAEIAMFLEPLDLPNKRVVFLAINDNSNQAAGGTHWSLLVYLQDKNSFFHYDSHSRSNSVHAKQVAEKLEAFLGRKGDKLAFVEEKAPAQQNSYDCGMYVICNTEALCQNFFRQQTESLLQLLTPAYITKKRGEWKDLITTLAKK
It is filed as functional.

Assay [16] deals with T6, Sentrin-specific protease 8. The assay is classed as functional. The source holds these as a separate data set.
For assay [17], the target named is T7, Polyadenylate-binding protein 1 (Homo sapiens, UniProt P11940). The assay can be described thus: PABP1 MLLE–PAM2 interaction inhibitors, dose response, miRNA deadenylation inhibitor project, biochemical, fluorescence polarization, Cy5-PAM2 peptide, secondary (AID 602260). Particulars: read-out: IC50_Mean. It is filed as functional.
The target in assay [18] is T7, Polyadenylate-binding protein 1. The assay can be described thus: PABP1 MLLE–PAM2 binding inhibitor potency, dose response, biochemical, fluorescence polarization, FITC-PAM2 peptide (AID 602259). The settings on record: read-out: IC50_Mean. The assay is classed as functional.
Assay [19] has as its target Long-chain-fatty-acid--AMP ligase FadD28 (Mycobacterium tuberculosis, UniProt P9WQ59). The assay can be described thus: Fluorescence polarization aasay to screen for inhibitors that compete for the binding of FadD28 to a bisubstrate Measured in Biochemical System Using Plate Reader - 2147-01_Inhibitor_Dose_CherryPick_Activity. It is filed as functional, Mycobacterium tuberculosis H37Rv.

T7 sequence (P11940 whole entry): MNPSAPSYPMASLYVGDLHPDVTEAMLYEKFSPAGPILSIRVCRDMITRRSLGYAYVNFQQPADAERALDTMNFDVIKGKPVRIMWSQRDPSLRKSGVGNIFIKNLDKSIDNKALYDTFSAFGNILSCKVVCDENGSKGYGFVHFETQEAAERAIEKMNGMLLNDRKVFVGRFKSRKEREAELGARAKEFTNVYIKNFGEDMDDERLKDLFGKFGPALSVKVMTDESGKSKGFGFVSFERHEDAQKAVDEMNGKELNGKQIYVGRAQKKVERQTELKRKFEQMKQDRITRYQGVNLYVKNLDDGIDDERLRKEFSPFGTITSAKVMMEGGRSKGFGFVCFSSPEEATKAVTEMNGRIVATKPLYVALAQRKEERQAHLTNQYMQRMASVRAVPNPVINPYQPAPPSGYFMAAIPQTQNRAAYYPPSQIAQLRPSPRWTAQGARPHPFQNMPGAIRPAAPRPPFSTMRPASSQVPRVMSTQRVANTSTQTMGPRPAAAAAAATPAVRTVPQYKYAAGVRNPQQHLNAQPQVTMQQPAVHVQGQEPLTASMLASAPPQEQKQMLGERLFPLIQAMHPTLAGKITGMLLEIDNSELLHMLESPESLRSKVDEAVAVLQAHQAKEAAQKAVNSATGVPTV
T2 sequence (P07550 whole entry): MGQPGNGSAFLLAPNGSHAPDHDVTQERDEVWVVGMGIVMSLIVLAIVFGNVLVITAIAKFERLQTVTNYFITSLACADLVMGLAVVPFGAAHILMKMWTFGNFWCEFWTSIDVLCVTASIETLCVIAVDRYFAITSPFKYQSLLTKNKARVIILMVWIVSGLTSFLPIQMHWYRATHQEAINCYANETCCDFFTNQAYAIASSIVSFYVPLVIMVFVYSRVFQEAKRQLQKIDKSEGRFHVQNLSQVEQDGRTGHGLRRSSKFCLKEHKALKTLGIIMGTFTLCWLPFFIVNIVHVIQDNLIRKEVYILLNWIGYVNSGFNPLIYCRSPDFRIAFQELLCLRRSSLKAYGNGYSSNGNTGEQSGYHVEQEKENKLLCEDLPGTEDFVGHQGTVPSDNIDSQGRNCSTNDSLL
Sequence of Botulinum neurotoxin type F (P30996 1-436 limits assumed): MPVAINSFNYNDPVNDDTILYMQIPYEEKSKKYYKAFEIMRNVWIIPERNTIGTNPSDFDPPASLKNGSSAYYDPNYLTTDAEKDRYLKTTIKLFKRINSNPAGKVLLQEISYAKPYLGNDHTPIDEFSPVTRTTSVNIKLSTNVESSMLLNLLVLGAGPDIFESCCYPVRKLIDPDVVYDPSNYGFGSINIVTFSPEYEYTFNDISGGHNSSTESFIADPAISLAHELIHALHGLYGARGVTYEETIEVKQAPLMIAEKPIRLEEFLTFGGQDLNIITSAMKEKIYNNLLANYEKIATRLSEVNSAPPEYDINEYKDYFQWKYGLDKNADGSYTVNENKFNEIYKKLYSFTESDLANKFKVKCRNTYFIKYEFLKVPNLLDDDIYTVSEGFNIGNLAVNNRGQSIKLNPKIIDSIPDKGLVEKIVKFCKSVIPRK
Sequence of Long-chain-fatty-acid--AMP ligase FadD28 (P9WQ59 whole entry): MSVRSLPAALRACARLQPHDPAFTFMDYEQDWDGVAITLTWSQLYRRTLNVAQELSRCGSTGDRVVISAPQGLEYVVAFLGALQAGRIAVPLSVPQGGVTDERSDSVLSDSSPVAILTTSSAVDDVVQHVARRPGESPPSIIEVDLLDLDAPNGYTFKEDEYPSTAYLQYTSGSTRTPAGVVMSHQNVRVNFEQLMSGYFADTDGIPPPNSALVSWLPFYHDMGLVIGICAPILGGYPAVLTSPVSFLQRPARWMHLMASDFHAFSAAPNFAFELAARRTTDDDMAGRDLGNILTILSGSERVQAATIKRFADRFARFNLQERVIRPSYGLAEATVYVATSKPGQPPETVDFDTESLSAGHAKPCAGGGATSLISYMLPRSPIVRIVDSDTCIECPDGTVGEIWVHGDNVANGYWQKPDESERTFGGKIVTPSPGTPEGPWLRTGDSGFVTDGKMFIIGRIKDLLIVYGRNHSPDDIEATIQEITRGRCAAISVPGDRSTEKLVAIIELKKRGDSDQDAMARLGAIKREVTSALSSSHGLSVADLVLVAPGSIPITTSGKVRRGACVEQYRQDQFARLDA

`CN(CC(=O)NC1CCN(Cc2ccccc2)CC1)S(=O)(=O)c1ccc(Cl)cc1`: the EC50 in assay [1] is > 20 µM (inactive).

For `O=C(NCCc1ccccc1)C(=O)NCC1OCCN1S(=O)(=O)c1ccc2c(c1)OCCO2` (centres undefined), the figures for the EC50 (in “cells [2]”; in assay [3]) were > 29.9 µM (inactive) and 5.13 µM (active), respectively. Besides, the IC50 in the assay “cells [4]” was > 29.9 µM (inactive); in assay [5], 8.98 µM (active).

`CC(Sc1nc(-c2ccccc2)cc(C(F)(F)F)n1)C(=O)N1CCOCC1` (centres undefined): the EC50 in assay [6] is 0.0435 µM (active); in assay [7], 0.0143 µM (active).

In the case of `C[C@H](CO)N1C[C@H](C)[C@@H](CN(C)Cc2ccc(Cl)c(Cl)c2)Oc2c(NC(=O)Nc3ccc(C(F)(F)F)cc3)cccc2C1=O`, the values for the concentration at half-maximal activity (AC50) in [8] and in [9] were 10.2 µM (active) and 3.08 µM (active), respectively.

`COC(=O)C[C@H]1C[C@H]2c3cc(NC(=O)CN(C)C)ccc3O[C@H]2[C@H](CO)O1`: the AbsAC35 in [10] came to 110.27 µM.

On to `CN1/C(=C/C=C/c2n(C)c3cc([N+](=O)[O-])c([N+](=O)[O-])cc3[n+]2C)C(C)(C)c2ccccc21`, for which the IC50 in assay [11] is 42.2 µM (inactive); in [12] it was 20.1 µM (inactive); in assay [13], 6.17 µM (active). In addition, the concentration at half-maximal activity (AC50) in [14] was 18.4 µM (active).

Consider `Nc1cc(N)cc(C(=O)c2ccccc2)c1`, for which the IC50 in [15] was 10.4 µM (active); in assay [16], 13.8 µM (active).

For `COc1ccc(NC(=O)CSc2ccc([N+](=O)[O-])cc2)cc1S(=O)(=O)N1CCOCC1`, the IC50 in [17] and in [18] was > 66 µM (inactive) in each case. Moreover, the AC50 in [19] was 24.7 µM (active).
